Assay results taken from US20090233881A1, “COMPOUNDS HAVING ANTI-CANCER PROPERTIES” (Vital Health Sciences Pty. Ltd, priority 2005, published 2009).
Where “and” joins values, the source holds several entries; their conditions need not be identical. Equal values may be shown once.

What was measured:
[1] = tested on: DU-145 prostate cancer cells; assay: DU-145 cell growth assay (Coulter cell counting); format: cell-based; conditions: DU-145, 12 days; for Total viable cells/well: single well
Experimental: Culture of stock cells. DU-145 prostate cancer cells were purchased from American Type Culture Collection (Manassas, Va., USA). Stock cells were grown in Dulbecco's Modified Eagle Medium (DMEM) (Gibco BRL, Grand Island N.Y.) supplemented with 5% FBS (Fetal Bovine Serum, Gibco BRL, Grand Island N.Y.) in a humidified atmosphere of 5% CO2 in air at 37° C. Cells were subcultured every 1-2 times a week.
Cell growth assay. Cells were trypsinized from the stock plates by treatment with trypsin/versene, added to an equal volume of phenol red-free RPMI-1640 (Gibco BRL, Grand Island N.Y.) supplemented with 5% dextran-charcoal treated fetal calf serum (DCFCS). Cells were resuspended to a cell count of 0.1×10^5 cells/ml with the use of a haemocytometer and plated in monolayer in 0.5 ml aliquots into 24-well plastic culture dishes (Costar, Corning USA). After 24 hours, cells were treated with appropriate concentrations (see table) of γ-tocopheryl phosphate mixture (γ-TP) (Vital Health) and Lycopene (Sigma) or combinations of Lycopene and γ-TP diluted in phenol red-free RPMI medium 1640 supplemented with 5% DCFCS. The culture medium was changed every 3-4 days. The combination treatment contained lycopene and γ-TP in a 1:1 ratio by molecular weight/mass with lycopene varying from 5 ug/ml-40 ug/ml.
Cell counting. The cells were washed twice with 0.9% NaCl to remove non-adherent dead cells and were then lysed in 0.5 ml 2.5 mM Hepes buffer/[…] MgCl2 plus two drops of zapoglobin II lytic reagent (Beckman Coulter, Coulter Corp USA) for 5-15 minutes. The nuclei released were suspended in isoton III (Beckman Coulter, Coulter Corp, USA) and counted on a Coulter counter with particle size set at >5 μm. All cell counts were carried out in triplicate on triplicate well contents. The results were calculated as the average ±standard error. P-values were determined using Independent samples T-Test (by standard software packages SPSS).

[2] = tested on: MCF-7 breast cancer cells; assay: MCF-7 breast cancer cell line proliferation assay (MTS); format: cell-based, human; conditions: for activity on MCF-7 proliferation (MTS; quantity not given): MCF-7, 72 hours, no E
Experimental: MCF-7 breast cancer cell growth conditions: Cells were grown in 75 cm^2 plastic tissue cell flasks as monolayer in Dulbecco's Modified Eagle Medium (DMEM), supplemented with 10% FBS in a humidified atmosphere of 5% CO2 in 95% air at 37° C. Cells were sub-cultured at bi-weekly intervals by suspension with 0.06% trypsin/0.02% EDTA (pH 7.3).
MCF-7 breast cancer cell line proliferation assays (MITS Assays): Cells were trypsinised (as performed during sub-culturing) in DMEM, supplemented with 10% FBS. Cells were re-suspended to a cell count of 10,000 cells/ml, with the use of a haemocytometer. Cells were seeded at 1,000 cells/well or by the addition of 100 μl of the cell suspension into 96-well cell culture plates. The cells were left overnight and then were synchronised (by serum starving for 24 hours), prior to the start of experiments.
After the cells were synchronised the cells were treated with the appropriate concentrations of the treatments, prepared in 100% ethanol (2, 5, 10, 15, 20, 30 & 50 μg/ml), they were added to RPMI medium 1640 supplemented with 10% dextran-charcoal treated FCS (DCFBS). […] After 72 hours the plates are incubated with MTS reagent (as described in Example 1) for 1 hr. The plate was read in a spectrophotometer at 490 nm. There were 8 replicates for each compound tested (at the various concentrations shown below).
Treatment abbreviations: GT=gamma-tocopherol; GTP=gamma-tocopheryl phosphate; GT2P=gamma-di-tocopheryl phosphate, GTPM=gamma-tocopheryl phosphate mixture (combination of GTP and GT2P).

[3] = tested on: MCF-7 breast cancer cells; assay: as above; format: cell-based, human; conditions: MCF-7, 72 hours, no E, concentration 1

Row | Structure (SMILES) | Average total viable cells/well ([1]; Lycopene 5 ug/ml) | Total viable cells/well ([1]; Lycopene 5 ug/ml) | Average total viable cells/well ([1]; Lycopene 10 ug/ml) | Total viable cells/well ([1]; Lycopene 10 ug/ml) | Average total viable cells/well ([1]; Lycopene 15 ug/ml) | Total viable cells/well ([1]; Lycopene 15 ug/ml) | Average total viable cells/well ([1]; Lycopene 20 ug/ml) | Average total viable cells/well ([1]; Lycopene 25 ug/ml) | Total viable cells/well ([1]; Lycopene 25 ug/ml) | Average total viable cells/well ([1]; Lycopene 30 ug/ml) | activity on MCF-7 proliferation (MTS; quantity not given) ([2]; concentration 2 μg/ml) | activity on MCF-7 proliferation (MTS; quantity not given) ([2]; concentration 5 μg/ml) | activity on MCF-7 proliferation (MTS; quantity not given) ([2]; concentration 10 μg/ml) | activity on MCF-7 proliferation (MTS; quantity not given) ([2]; concentration 15 μg/ml) | activity on MCF-7 proliferation (MTS; quantity not given) ([2]; concentration 20 μg/ml) | activity on MCF-7 proliferation (MTS; quantity not given) ([2]; concentration 30 μg/ml) | activity on MCF-7 proliferation (MTS; quantity not given) ([2]; concentration 50 μg/ml) | activity on MCF-7 proliferation (MTS; quantity not given) [3] | relative potency as anti-cancer treatment ([2]; MCF-7)
1 | CC(C)=CCC/C(C)=C/C=C/C(C)=C/C=C/C(C)=C/C=C/C=C(C)/C=C/C=C(C)/C=C/C=C(\C)CCC=C(C)C [lycopene] | 4.367 ×10^5 cells/well | 4.392 ×10^5 cells/well and 4.383 ×10^5 cells/well and 4.325 ×10^5 cells/well | 3.712 ×10^5 cells/well | 3.555 ×10^5 cells/well and 3.869 ×10^5 cells/well | 3.716 ×10^5 cells/well | 3.704 ×10^5 cells/well and 3.727 ×10^5 cells/well | 0.276 ×10^5 cells/well | 1.478 ×10^5 cells/well | 1.759 ×10^5 cells/well and 1.196 ×10^5 cells/well | 0.120 ×10^5 cells/well | – | – | – | – | – | – | – | – | –
2 | Cc1c(OP(=O)(O)O)cc2c(c1C)O[C@](C)(CCC[C@H](C)CCC[C@H](C)CCCC(C)C)CC2 [GTP, gamma-tocopheryl phosphate] | – | – | – | – | – | – | – | – | – | – | 5.624 | 4.807 | 25.102 | 43.512 | 64.719 | 81.81 | 109.928 | 7.32 | –
3 | Cc1c(OP(=O)(O)Oc2cc3c(c(C)c2C)O[C@](C)(CCC[C@H](C)CCC[C@H](C)CCCC(C)C)CC3)cc2c(c1C)O[C@](C)(CCC[C@H](C)CCC[C@H](C)CCCC(C)C)CC2 [GT2P, gamma-di-tocopheryl phosphate] | – | – | – | – | – | – | – | – | – | – | 4.91 | 31.07 | 39.471 | 53.126 | 64.557 | 98.43 | 126.506 | 7.283 | –
4 | Cc1c(O)cc2c(c1C)O[C@](C)(CCC[C@H](C)CCC[C@H](C)CCCC(C)C)CC2 [GT, gamma-tocopherol] | – | – | – | – | – | – | – | – | – | – | 15.685 | 36.36 | 68.689 | 56.82 | 79.766 | 82.743 | 62.622 | −6.104 | least potent with limited activity
